ChEMBL document CHEMBL2073803, “Role of MDR1 and MRP1 in trophoblast cells, elucidated using retroviral gene transfer” (Am J Physiol Cell Physiol, 2003)

Target: ATP-dependent translocase ABCB1 (Homo sapiens, UniProt P08183)
Assay: TP_TRANSPORTER: efflux in MDR1-expressing BeWo cells
Assay type: functional, cell-based

ATP-dependent translocase ABCB1, sequence (P08183 whole entry): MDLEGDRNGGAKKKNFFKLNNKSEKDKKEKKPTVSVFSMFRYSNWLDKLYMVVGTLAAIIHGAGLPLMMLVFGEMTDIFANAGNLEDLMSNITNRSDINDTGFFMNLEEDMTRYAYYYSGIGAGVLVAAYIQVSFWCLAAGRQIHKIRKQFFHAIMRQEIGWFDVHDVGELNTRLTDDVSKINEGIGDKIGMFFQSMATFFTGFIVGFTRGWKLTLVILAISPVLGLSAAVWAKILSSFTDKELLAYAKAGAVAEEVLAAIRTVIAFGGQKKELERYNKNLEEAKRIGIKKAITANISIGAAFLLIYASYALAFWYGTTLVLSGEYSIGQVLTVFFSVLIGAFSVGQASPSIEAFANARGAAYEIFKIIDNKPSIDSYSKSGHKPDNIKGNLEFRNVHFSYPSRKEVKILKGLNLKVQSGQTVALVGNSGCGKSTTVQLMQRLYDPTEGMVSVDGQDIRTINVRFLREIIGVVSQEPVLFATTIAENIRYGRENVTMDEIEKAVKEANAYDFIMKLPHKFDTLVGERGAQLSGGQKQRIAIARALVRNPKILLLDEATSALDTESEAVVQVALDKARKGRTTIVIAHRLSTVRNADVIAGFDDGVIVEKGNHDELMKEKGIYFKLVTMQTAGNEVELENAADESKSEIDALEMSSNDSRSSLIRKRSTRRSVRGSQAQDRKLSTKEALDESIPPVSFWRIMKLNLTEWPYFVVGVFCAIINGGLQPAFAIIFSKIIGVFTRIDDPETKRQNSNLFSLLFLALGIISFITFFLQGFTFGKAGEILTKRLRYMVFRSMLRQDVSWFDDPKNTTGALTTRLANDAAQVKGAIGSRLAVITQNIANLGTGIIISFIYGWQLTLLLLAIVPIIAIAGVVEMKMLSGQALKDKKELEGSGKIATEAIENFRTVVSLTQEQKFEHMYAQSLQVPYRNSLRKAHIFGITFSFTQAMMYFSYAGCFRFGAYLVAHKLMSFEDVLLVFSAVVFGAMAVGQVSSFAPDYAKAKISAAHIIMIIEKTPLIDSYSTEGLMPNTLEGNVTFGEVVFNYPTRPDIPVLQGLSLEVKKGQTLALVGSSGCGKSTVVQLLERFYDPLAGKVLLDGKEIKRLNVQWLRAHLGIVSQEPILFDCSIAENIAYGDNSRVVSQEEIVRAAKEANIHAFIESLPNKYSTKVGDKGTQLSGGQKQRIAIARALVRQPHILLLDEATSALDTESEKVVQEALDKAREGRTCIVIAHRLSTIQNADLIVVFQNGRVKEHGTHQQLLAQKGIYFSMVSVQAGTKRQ

In the case of CC[C@]1(O)C[C@@H]2CN(CCc3c([nH]c4ccccc34)[C@@](C(=O)OC)(c3cc4c(cc3OC)N(C)[C@H]3[C@@](O)(C(=O)OC)[C@H](OC(C)=O)[C@]5(CC)C=CCN6CC[C@]43[C@@H]65)C2)C1 [VINBLASTINE], the Activity is reported as “substrate [+]”.
